The values that follow come from patent US6596265B1, “Use of sophorolipids comprising diacetyl lactones as agent for stimulating skin fibroblast metabolism” (Institut Français du Pétrole, priority 1998, dated 2003).

Holding throughout (type): cell-based
Holding throughout (conditions): 100 μg/ml, 3 days incubation

Test [1] deals with normal human dermal fibroblast cultures. The test is described as follows: Protein content of fibroblast cell layers (cell division), Coomassie Blue/Bradford. As for the experimental part:
The effects of the product on cell division were evaluated by measuring the DNA and proteins in the cell layers after 3 days of incubation. Fibroblasts were isolated from the operative residue of abdominal plastic surgery carried out on a person. The cells were cultivated in fibroblast culture medium (FCM) at 37° C. in a moist atmosphere containing 5% of CO2 until confluence of the monolayers. The culture medium used was fibroblast culture medium (FCM), constituted by MEM/M199 (¾, ¼, v/v) with added penicillin (50 IU/ml), streptomycin (50 μg/ml), sodium bicarbonate (0.2%, wv/v) and SVF (10%, v/v). The fibroblast incubation medium (FIM) with the products was constituted by MEM/M199 (¾, ¼, v/v) with added penicillin (50 IU/ml), streptomycin (50 μg/ml), sodium bicarbonate (0.2%, w/v) and SVF (2%, v/v). It contained 1 μCi/ml of tritiated proline. The purified lactone fraction was diluted in FIM and was tested at 0.02, 0.08 and 0.4 μg/ml (dry matter). The unrefined sophorolipids were tested at 0.08; 0.4 and 2 μg/ml. The ascorbic acid was tested at 100 μg/ml (0.5 mM) in FIM. The fibroblast cultures were incubated for 3 days at 37° C. in a moist atmosphere containing 5% of CO2. Reference cultures, incubated in the absence of the products to be tested, were produced in parallel. The tests were carried out in triplicate. […]

For test [2], the system named is normal human dermal fibroblasts. The test is described as follows: DNA content of fibroblast cell layers (cell division), HOECHST 33258 fluorimetry. As for the experimental part: The effects of the product on cell division were evaluated by measuring the DNA and proteins in the cell layers after 3 days of incubation. Fibroblasts were isolated from the operative residue of abdominal plastic surgery carried out on a person. The cells were cultivated in fibroblast culture medium (FCM) at 37° C. in a moist atmosphere containing 5% of CO2 until confluence of the monolayers. The culture medium used was fibroblast culture medium (FCM), constituted by MEM/M199 (¾, ¼, v/v) with added penicillin (50 IU/ml), streptomycin (50 μg/ml), sodium bicarbonate (0.2%, wv/v) and SVF (10%, v/v). The fibroblast incubation medium (FIM) with the products was constituted by MEM/M199 (¾, ¼, v/v) with added penicillin (50 IU/ml), streptomycin (50 μg/ml), sodium bicarbonate (0.2%, w/v) and SVF (2%, v/v). It contained 1 μCi/ml of tritiated proline. The purified lactone fraction was diluted in FIM and was tested at 0.02, 0.08 and 0.4 μg/ml (dry matter). The ascorbic acid was tested at 100 μg/ml (0.5 mM) in FIM. The fibroblast cultures were incubated for 3 days at 37° C. in a moist atmosphere containing 5% of CO2. Reference cultures, incubated in the absence of the products to be tested, were produced in parallel. The tests were carried out in triplicate. After incubation, the incubation media were removed then the cell layers were rinsed with PBS The cells were then lysed by ultrasound. The DNA was assayed using a fluorimetric method using HOECHST 33258 reactant. The proteins in the cell lysate were assayed using the Coomassie Blue method described by Bradford. These assays ensured a suitable interpretation of the results obtained for collagen neosynthesis. Treatment of data: the groups of data (reference group and treated groups) were processed by a one-way variance analysis (ANOVA 1, p<0.05) followed by a Dunnett test (p<0.05). The effect of the products was thus compared with the control group.

The subject of test [3] is normal human dermal fibroblast cultures. The test is described as follows: Collagen neosynthesis: tritiated proline incorporation into secreted collagens (culture medium, >30 kD). From the text:
The effect of purified lactones on the synthesis of collagens in normal human dermal fibroblast cultures was studied. Collagyens are quantitatively the major dermal proteins. Proline and hydroxyproline constitute 30% of the constituent amino acids of collagens (a high percentage and much higher than that of the majority of other fibroblast proteins). Hydroxyproline is not an amino acid incorporated during the synthesis of collagens, as is the case with proline. Hydroxylation of proline, which leads to the presence of hydroxyproline in collagens, is a collagen maturation process which occurs once synthesis is complete. […] Collagen neosynthesis was measured by monitoring the incorporation of radiolabelled proline into newly synthesised fibroblast proteins. […] Fractions (1) and (2) were measured together and grouped under the title “cell layer collagens”. […] Measurement of incorporation of tritiated proline into “secreted collagens”: the incorporation of tritiated proline into neosynthesised collagens secreted in the culture medium was evaluated after 3 days of incubation. […] The radioactivity of the high molecular weight protein fraction (retained on the filters) corresponded almost exclusively to the secreted collagens and was measured by liquid scintillation with a β particle counter. […]

The test system is the same in test [4]. The test is described as follows: Collagen neosynthesis: tritiated proline incorporation into cell layer collagens. From the text: The effect of purified lactones on the synthesis of collagens in normal human dermal fibroblast cultures was studied. Collagyens are quantitatively the major dermal proteins. Proline and hydroxyproline constitute 30% of the constituent amino acids of collagens (a high percentage and much higher than that of the majority of other fibroblast proteins). Hydroxyproline is not an amino acid incorporated during the synthesis of collagens, as is the case with proline. Hydroxylation of proline, which leads to the presence of hydroxyproline in collagens, is a collagen maturation process which occurs once synthesis is complete. Measuring the incorporation of tritiated proline into fibroblast proteins thus provides a good index of collagen neosynthesis. […] Collagen neosynthesis was measured by monitoring the incorporation of radiolabelled proline into newly synthesised fibroblast proteins. […] Fractions (1) and (2) were measured together and grouped under the title “cell layer collagens”. […] Measurement of incorporation of tritiated proline into “cell layer collagens” the incorporation of tritiated proline into neosynthesised fibroblast proteins, the proteins present in the cells and deposited in the extracellular matrix, was evaluated after 3 days of incubation. The radioactivity of the cell lysate obtained as described above was measured by liquid scintillation with a β particle counter. […]

The structures appear in SMILES notation. “And” between values parts separate entries of the source, which are not always exact repeats. Identical values can stand only once. Marks after values point to notes of the source that are not given here.

In the case of `O=C1O[C@H]([C@@H](O)CO)C(O)=C1O` [Ascorbic acid, ascorbic acid], in test [1], the “Proteins in cell layer” value is given as 108 % of reference. For the same molecule, the “DNA content, percentage of control” value in test [2] is recorded as 90 percentage of control. Also, the “DNA content, mean” value in test [2] (mean of triplicate) worked out at 7.5 μg/cell layer. Also, in test [2] (single replicate), the “DNA content, individual culture” value is 10 μg/cell layer and 6 μg/cell layer (2×). Also, the “Secreted collagens (culture medium)” value in test [3] is recorded as 181%* % of control. For the same molecule, the “Increase of secreted collagens, factor” value in test [3] (factor versus control) was found to be 1.81. In addition, in test [4], the Cell layer collagens is given as 168%* % of control. Also, the “Increase of cell layer collagens, factor” value in test [4] (factor versus control) was found to be 0.68.
